From patent publication US20240382612A1, “BIOACTIVE CONJUGATE, PREPARATION METHOD THEREFOR AND USE THEREOF” (priority 2017, published 2024)

Key:
Assay type in all cases: in vivo, Balb/c-nu mice
[1] = system: human gastric cancer cell line NCI-N87; assay: Experimental example 1: NCI-N87 gastric cancer subcutaneous xenograft, tumor inhibition; conditions: D21 after administration; IV, BIW×3W; BT001021 and Immu-132 3 mg/kg, toxins T-030 and SN-38 equimolar to ADC
Experimental: (§1) Tumor-bearing mice (6 mice/group) with tumor volume of 100-200 mm^3 were randomly grouped (the number of groups was determined according to sample number). The administration volume was 10 ml/kg, and the administration route was tail intravenous injection. The mice were administered twice a week, and tumor diameter was measured with a vernier caliper, and tumor volume was calculated based on the following calculation formula: V=0.5 a×b^2, wherein a and b stand for the long diameter and short diameter of a tumor respectively. Animal deaths were observed and recorded every day.
(§2) The tumor growth inhibition rate TGI (%) was calculated from the following formula to evaluate tumor inhibitory effect of antibody drug conjugates:
(§3) Specifically, in the experimental examples 1 and 2, tumor-bearing mice models were constructed by subcutaneous xenograft of a human gastric cancer cell line NCI-N87 or a human triple negative breast cancer cell line HCC1806. After the tumor volume was about 100 mm^3, the mice were randomly grouped, and intravenously administered with BT001021 twice a week for a total of 6 times. Changes in tumor volume and animal body weight were measured twice a week to evaluate the efficacy (tumor inhibitory effect) of the antibody drug conjugate on tumor-bearing mice.
NCI-N87 cells were cultured in a 1640 culture medium containing 10% fetal bovine serum at 37° C. and 5% CO2. NCI-N87 cells in the exponential growth stage were collected, resuspended in PBS to a suitable concentration, and inoculated subcutaneously into female Balb/c-nu mice to construct gastric cancer models. When the mean tumor volume was about 90 mm^3, the mice were randomly grouped into a physiological saline group, a BT001021 (3 mg/kg, IV, BIW×3W) group, a positive drug Immu-132 (3 mg/kg, IV, BIW×3W) group, a T030 group and a SN38 group according to the tumor size, followed by tail intravenous injection of corresponding drugs twice a week for a total of 6 times. After administration, the tumor volume and body weight of the mice were observed and measured regularly.

[2] = system: human breast cancer cell line HCC1806; assay: Experimental example 2: HCC1806 breast cancer subcutaneous xenograft, tumor inhibition; conditions: 10 mg/kg, IV, BIW×3W
Experimental: as §1, §2, §3
HCC1806 cells were cultured in a 1640 culture medium containing 10% fetal bovine serum at 37° C. and 5% CO2. HCC1806 cells in the exponential growth stage were collected, resuspended in PBS in a suitable concentration, and inoculated subcutaneously into female Balb/c-nu to construct breast cancer models. When the mean tumor volume was about 130 mm^3, the mice were randomly grouped into a physiological saline group, a BT001021 (10 mg/kg, IV, BIW×3W) group and a positive drug Immu-132 (10 mg/kg, IV, BIW×3W) group according to the tumor size, followed by tail intravenous injection of corresponding drugs twice a week for a total of […]. After administration, the tumor volume of the mice was observed and measured regularly.

[3] = system: human non-small cell lung cancer cell line HCC827; assay: Experimental example 3: HCC827 non-small cell lung cancer subcutaneous xenograft, tumor inhibition; conditions: D21 after administration; 10 mg/kg, IV, BIW×3W
Experimental: as §1, §2
The experimental example 3 was used to evaluate the inhibitory effect of BT001021 and BT001035 on proliferation of tumor-bearing mice models constructed by subcutaneous xenograft human tumor cells of HCC827 non-small cell lung cancer. […] Then changes in tumor volume and animal body weight were measured twice a week to calculate the efficacy (tumor inhibitory effect) of BT001021 and BT001035 on the tumor-bearing mice.
HCC827 cells were cultured in a 1640 culture medium containing 10% fetal bovine serum at 37° C. and 5% CO2. […] After administration, the tumor volume and body weight of the mice were observed and measured regularly. […]

Substance: Immu-132: positive drug; ADC prepared according to example 2 of WO2015/012904A2, DAR=5.4
- Tumor Volume (mm^3) (x ± S) [1]: 259.04 ± 42.41 mm^3
- Tumor growth inhibition rate (%) [1]: 46.46%
- tumor growth of xenograft model mice (result in words) [2]: did not show significant inhibitory activity
- Tumor Volume (mm^3) (x ± S) ([2]; D17 after administration): 2347.05 ± 317.79 mm^3
- Tumor growth inhibition rate (%) ([2]; D17 after administration): 11.62%
- TGI (%) [3]: 85.19%
- Tumor Volume (mm^3) (x ± S) [3]: 145.94 ± 19.72 mm^3
